Source: ChEMBL document CHEMBL1142372, “Design, synthesis, and structure-activity relationship studies of 4-quinolinyl- and 9-acrydinylhydrazones as potent antimalarial agents” (J Med Chem, 2008)
Calls of active or inactive are those of the source. The rule behind the calls is not given here.

Tests used:
[1] = tested on: Plasmodium falciparum; assay: Antiplasmodial activity against chloroquine-resistant Plasmodium falciparum W2 by [3H]hypoxanthine incorporation; format: functional, organism-based
[2] = tested on: Plasmodium falciparum; assay: Antiplasmodial activity against chloroquine-resistant Plasmodium falciparum K1 by [3H]hypoxanthine incorporation; format: functional, organism-based
[3] = tested on: Plasmodium falciparum; assay: Antiplasmodial activity against chloroquine-sensitive Plasmodium falciparum D10 by [3H]hypoxanthine incorporation; format: functional, organism-based
[4] = tested on: Plasmodium falciparum; assay: Antiplasmodial activity against chloroquine-sensitive Plasmodium falciparum 3D7 by [3H]hypoxanthine incorporation; format: functional, organism-based
[5] = tested on: KB; assay: Cytotoxicity against human KB cells; format: functional; conditions: read-out: ED50 (the source's name)
[6] = molecular target: T1, Histidine-rich protein PFHRP-II (Plasmodium falciparum) (UniProt P05227); assay: Inhibition of beta-hematin formation by BHIA; format: functional
T1 sequence (whole entry): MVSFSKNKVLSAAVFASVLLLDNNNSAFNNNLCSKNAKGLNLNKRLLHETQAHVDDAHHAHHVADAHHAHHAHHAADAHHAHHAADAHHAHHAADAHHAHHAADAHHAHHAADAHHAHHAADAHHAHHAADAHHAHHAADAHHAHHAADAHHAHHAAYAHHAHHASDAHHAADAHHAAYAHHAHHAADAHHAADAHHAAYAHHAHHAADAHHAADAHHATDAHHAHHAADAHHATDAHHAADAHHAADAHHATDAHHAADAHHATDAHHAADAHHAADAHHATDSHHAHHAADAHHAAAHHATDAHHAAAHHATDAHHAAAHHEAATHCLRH

[7] = tested on: Plasmodium berghei; assay: Reduced parasitemia in Plasmodium berghei ANKA infected BALB/c mice (Mus musculus) at 10 mg/kg intraperitoneal dose after 4 days; format: functional; set-up: scale not given: the % may be the effect or the level left
[8] = tested on: Mus musculus; assay: Survival of Plasmodium Berghei ANKA infected BALB/c mice (Mus musculus) at 10 mg/kg, intraperitoneally; format: functional, organism-based; set-up: dose 10 mg/kg
[9] = tested on: Plasmodium berghei; assay: Antimalarial activity against Plasmodium berghei ANKA infected BALB/c mice (Mus musculus) as reduced parasitaemia at 30 mg/kg intraperitoneal dose after 4 days; format: functional; set-up: scale not given: the % may be the effect or the level left
[10] = tested on: Mus musculus; assay: Survival of Plasmodium Berghei ANKA infected BALB/c mice (Mus musculus) at 30 mg/kg, intraperitoneally; format: functional, organism-based; set-up: dose 30 mg/kg

For `COc1ccc2nccc(N/N=C/c3ccc(N4CCCC4)cc3)c2c1`, the IC50 [1] was 185 nM, the IC50 [2] was 462 nM and the IC50 [3] was 115 nM. It also gave an IC50 [4] of 404 nM.
With `Cc1noc(C)c1/C=N/Nc1ccnc2cc(Cl)ccc12` the IC50 [1] was 509 nM, the IC50 [2] was 2130 nM and the IC50 [3] was 347 nM. The EC50 [5] was 171000 nM and the IC50 [4] was 125 nM.
`Clc1ccc2c(N/N=C/c3ncc[nH]3)ccnc2c1` was tested, and the IC50 [1] was 23.7 nM, the IC50 [2] was 31.6 nM and the Activity [6] was “Dose-dependent effect”. It also gave an IC50 [3] of 65.2 nM, an EC50 [5] of 19500 nM and an IC50 [4] of 5.9 nM.
Compound `COc1ccc(/C=N/Nc2c3c(nc4ccccc24)CCCC3)cc1` has an IC50 [1] of 2360 nM and an IC50 [3] of 942 nM.
With `O=C(NNc1ccnc2cc(Cl)ccc12)c1c[nH]cn1` the IC50 [1] was over 10000 nM, the IC50 [2] was over 10000 nM and the IC50 [3] was over 10000 nM. The IC50 [4] was 8830 nM.
With `CCN(CC)c1ccc(/C=N/Nc2ccnc3ccc(OC)cc23)cc1` the IC50 [1] was 166 nM, the IC50 [2] was 172 nM and the IC50 [3] was 142 nM. For the same compound, the IC50 [4] was 22.9 nM.
Work on `O=C(NNc1ccnc2cc(Cl)ccc12)c1ncc[nH]1` yielded an IC50 [1] of over 10000 nM, an IC50 [2] of over 10000 nM and an IC50 [3] of 6470 nM. The IC50 [4] was 5460 nM.
In the case of `Clc1ccc2c(N/N=C/c3ccc(N4CCCC4)cc3)ccnc2c1`, the IC50 [1] is reported as 190 nM, the IC50 [2] is reported as 427 nM and the IC50 [3] is reported as 189 nM. It also gave an IC50 [4] of 855 nM.
`C(=N\Nc1ccnc2cc3c(cc12)OCO3)/c1ccc(CN2CCCC2)cc1` was tested, and the IC50 [1] was 46.5 nM, the IC50 [2] was 58 nM and the IC50 [3] was 35.6 nM. For the same compound, the IC50 [4] was 26.7 nM.
For `COc1ccc(/C=N/Nc2ccnc3c(OC)cccc23)cc1`, the IC50 [1] was 903 nM, the IC50 [2] was 769 nM and the IC50 [3] was 715 nM. It also gave an IC50 [4] of 326 nM.
Work on `COc1cccc2c(N/N=C/c3ccc4ccccc4n3)cc(C)nc12` yielded an IC50 [1] of 324 nM, an IC50 [2] of 117 nM and an IC50 [3] of 404 nM. For the same compound, the IC50 [4] was 789 nM.
`CCOc1ccc2c(N/N=C/c3ccc(OC)cc3)cc(C)nc2c1` gave an IC50 [1] of 232 nM, an IC50 [2] of 537 nM and an IC50 [3] of 212 nM. The IC50 [4] was 805 nM.
`COc1ccc2nccc(N/N=C/c3ccc(CN4CCCC4)cc3)c2c1` was tested, and the IC50 [1] was 99.4 nM, the IC50 [2] was 86.1 nM and the IC50 [3] was 24.8 nM. For the same compound, the IC50 [4] was 16.7 nM.
With `CCN(CC)CCCC(C)Nc1ccnc2cc(Cl)ccc12` (stereo not given) [CHLOROQUINE] the Activity [7] was 98%, the Activity [6] was “Dose-dependent effect” and the EC50 [5] was 260000 nM. The Activity [8] was “Active”.
`COc1ccc2nccc(N/N=C/c3ccc4c(c3)OCO4)c2c1` showed an IC50 [1] of 197 nM and an IC50 [3] of 132 nM.
Compound `O=S(=O)(NNc1ccnc2cc(Cl)ccc12)c1cccc2ccccc12` has an IC50 [1] of 2530 nM, an IC50 [2] of 599 nM and an IC50 [3] of 4270 nM. For the same compound, the IC50 [4] was 2160 nM.
Compound `CCN(CC)c1ccc(/C=N/Nc2ccnc3c(OC)cccc23)cc1` has an IC50 [1] of 791 nM, an IC50 [2] of 125 nM and an IC50 [3] of 442 nM. For the same compound, the IC50 [4] was 206 nM.
Work on `CCN(CC)c1ccc(/C=N/Nc2ccnc3cc(Cl)ccc23)cc1` yielded an IC50 [1] of 250 nM, an IC50 [3] of 175 nM and an IC50 [4] of 300 nM.
`COc1ccc2nccc(N/N=C/c3ccc4ccccc4n3)c2c1` showed an IC50 [1] of 96 nM, an IC50 [2] of 159 nM and an IC50 [3] of 73 nM. It also gave an IC50 [4] of 125 nM.
With `CCN(CC)Cc1ccc(/C=N/Nc2ccnc3cc(Cl)ccc23)cc1` the IC50 [1] was 57.7 nM, the IC50 [2] was 27.2 nM and the IC50 [3] was 48.3 nM. For the same compound, the IC50 [4] was 2.7 nM.
`Clc1ccc2c(N/N=C/c3ccco3)ccnc2c1` was tested, and the IC50 [1] was 1390 nM, the IC50 [2] was 824 nM and the Activity [6] was “Dose-dependent effect”. For the same compound, the IC50 [3] was 949 nM, the EC50 [5] was 19900 nM and the IC50 [4] was 169 nM.
In the case of `Clc1ccc2c(N/N=C/c3ccc(CN4CCCC4)cc3)ccnc2c1`, the Activity [9] is reported as 83%, the Activity [10] is reported as “Active” and the Activity [6] is reported as “Dose-dependent effect”. The EC50 [5] was 19500 nM.
`COc1ccc2c(N/N=C/c3ccc4ccccc4n3)ccnc2c1` was tested, and the IC50 [1] was 140 nM, the IC50 [2] was 213 nM and the IC50 [3] was 108 nM.
`CN(C)c1ccc(/C=N/Nc2ccnc3cc(Cl)ccc23)cc1` showed an IC50 [1] of 383 nM, an IC50 [2] of 1140 nM and an IC50 [3] of 325 nM. It also gave an IC50 [4] of 308 nM.
